Columns and labels:
[1] = system: BT-549; experiment: Cytotoxicity against human BT549 cells assessed as growth inhibition after 48 hrs by SRB assay; format: functional; settings: BT-549, 48 h
[2] = system: T47D; experiment: Cytotoxicity against human T47D cells assessed as growth inhibition after 48 hrs by SRB assay; format: functional
[3] = system: A498; experiment: Cytotoxicity against human A498 cells assessed as growth inhibition after 48 hrs by SRB assay; format: functional; settings: A498, 48 h
[4] = system: A549; experiment: Cytotoxicity against human A549 cells assessed as growth inhibition after 48 hrs by SRB assay; format: functional; settings: A549, 48 h
[5] = system: 786-0; experiment: Cytotoxicity against human 786-0 cells assessed as growth inhibition after 48 hrs by SRB assay; format: functional; settings: 786-0, 48 h
[6] = system: OVCAR-8; experiment: Cytotoxicity against human OVCAR8 cells assessed as growth inhibition after 48 hrs by SRB assay; format: functional; settings: OVCAR-8, 48 h
[7] = system: NCI/ADR-RES; experiment: Cytotoxicity against human NCI-ADR-RES cells assessed as growth inhibition after 48 hrs by SRB assay; format: functional
[8] = system: KM12; experiment: Cytotoxicity against human KM12 cells assessed as growth inhibition after 48 hrs by SRB assay; format: functional; settings: KM12, 48 h
[9] = system: SK-MEL-2; experiment: Cytotoxicity against human SK-MEL-2 cells assessed as growth inhibition after 48 hrs by SRB assay; format: functional; settings: SK-MEL-2, 48 h
[10] = system: NCI-H23; experiment: Cytotoxicity against human NCI-H23 cells assessed as growth inhibition after 48 hrs by SRB assay; format: functional; settings: NCI-H23, 48 h
[11] = system: SW-620; experiment: Cytotoxicity against human SW620 cells assessed as growth inhibition after 48 hrs by SRB assay; format: functional; settings: SW-620, 48 h
[12] = system: K562; experiment: Cytotoxicity against human K562 cells assessed as growth inhibition after 5 days by MTT assay; format: functional, cell-based; settings: K562, 120 h
[13] = system: SK-MEL-28; experiment: Cytotoxicity against human SK-MEL-28 cells assessed as growth inhibition after 48 hrs by SRB assay; format: functional; settings: SK-MEL-28, 48 h
[14] = system: MCF7; experiment: Cytotoxicity against human MCF7 cells assessed as growth inhibition after 48 hrs by SRB assay; format: functional; settings: MCF7, 48 h
[15] = system: HCT-116; experiment: Cytotoxicity against human HCT116 cells assessed as growth inhibition after 48 hrs by SRB assay; format: functional; settings: HCT-116, 48 h
[16] = system: HCT-15; experiment: Cytotoxicity against human HCT15 cells assessed as growth inhibition after 48 hrs by SRB assay; format: functional; settings: HCT-15, 48 h
[17] = system: K562; experiment: Cytotoxicity against human K562 cells assessed as growth inhibition after 48 hrs by SRB assay; format: functional; settings: K562, 48 h
[18] = system: NCI-H322M; experiment: Cytotoxicity against human NCI-H322M cells assessed as growth inhibition after 48 hrs by SRB assay; format: functional
[19] = system: SF-295; experiment: Cytotoxicity against human SF295 cells assessed as growth inhibition after 48 hrs by SRB assay; format: functional; settings: SF-295, 48 h
[20] = system: MOLT-4; experiment: Cytotoxicity against human MOLT4 cells assessed as growth inhibition after 48 hrs by SRB assay; format: functional; settings: MOLT-4, 48 h
[21] = system: HOP-62; experiment: Cytotoxicity against human HOP62 cells assessed as growth inhibition after 48 hrs by SRB assay; format: functional; settings: HOP-62, 48 h
[22] = system: UACC-257; experiment: Cytotoxicity against human UACC257 cells assessed as growth inhibition after 48 hrs by SRB assay; format: functional; settings: UACC-257, 48 h
[23] = system: NCI-H522; experiment: Cytotoxicity against human NCI-H522 cells assessed as growth inhibition after 48 hrs by SRB assay; format: functional; settings: NCI-H522, 48 h
[24] = system: RPMI-8226; experiment: Cytotoxicity against human RPMI8226 cells assessed as growth inhibition after 48 hrs by SRB assay; format: functional; settings: RPMI-8226, 48 h
[25] = system: HCC 2998; experiment: Cytotoxicity against human HCC2998 cells assessed as growth inhibition after 48 hrs by SRB assay; format: functional; settings: HCC 2998, 48 h
[26] = system: Hs-578T; experiment: Cytotoxicity against human Hs 578T cells assessed as growth inhibition after 48 hrs by SRB assay; format: functional
[27] = system: SF-539; experiment: Cytotoxicity against human SF539 cells assessed as growth inhibition after 48 hrs by SRB assay; format: functional; settings: SF-539, 48 h
[28] = system: SR; experiment: Cytotoxicity against human SR cells assessed as growth inhibition after 48 hrs by SRB assay; format: functional
[29] = system: SK-MEL-5; experiment: Cytotoxicity against human SK-MEL-5 cells assessed as growth inhibition after 48 hrs by SRB assay; format: functional; settings: SK-MEL-5, 48 h
[30] = Inhibition of porcine tubulin assembly measured for 30 mins by UV/visible spectrophotometric method; design: species or system Sus scrofa
[31] = system: U-251; experiment: Cytotoxicity against human U251 cells assessed as growth inhibition after 48 hrs by SRB assay; format: functional; settings: U-251, 48 h
[32] = system: SF-268; experiment: Cytotoxicity against human SF268 cells assessed as growth inhibition after 48 hrs by SRB assay; format: functional; settings: SF-268, 48 h
[33] = system: HL-60(TB); experiment: Cytotoxicity against human HL-60(TB) cells assessed as growth inhibition after 48 hrs by SRB assay; format: functional; settings: HL-60, 48 h
[34] = system: IGROV-1; experiment: Cytotoxicity against human IGROV1 cells assessed as growth inhibition after 48 hrs by SRB assay; format: functional; settings: IGROV-1, 48 h
[35] = system: SNB-19; experiment: Cytotoxicity against human SNB19 cells assessed as growth inhibition after 48 hrs by SRB assay; format: functional; settings: SNB-19, 48 h
[36] = system: UACC-62; experiment: Cytotoxicity against human UACC62 cells assessed as growth inhibition after 48 hrs by SRB assay; format: functional; settings: UACC-62, 48 h
[37] = system: MDA-MB-231; experiment: Cytotoxicity against human MDA-MB-231 cells assessed as growth inhibition after 48 hrs by SRB assay; format: functional; settings: MDA-MB-231, 48 h
[38] = system: SK-OV-3; experiment: Cytotoxicity against human SKOV3 cells assessed as growth inhibition after 48 hrs by SRB assay; format: functional; settings: SK-OV-3, 48 h
[39] = system: COLO 205; experiment: Cytotoxicity against human COLO205 cells assessed as growth inhibition after 48 hrs by SRB assay; format: functional; settings: COLO 205, 48 h
[40] = system: RXF 393; experiment: Cytotoxicity against human RXF393 cells assessed as growth inhibition after 48 hrs by SRB assay; format: functional; settings: RXF 393, 48 h
[41] = system: UO-31; experiment: Cytotoxicity against human UO31 cells assessed as growth inhibition after 48 hrs by SRB assay; format: functional; settings: UO-31, 48 h
[42] = system: SN12C; experiment: Cytotoxicity against human SN12C cells assessed as growth inhibition after 48 hrs by SRB assay; format: functional
[43] = system: LOX IMVI; experiment: Cytotoxicity against human LOXIMVI cells assessed as growth inhibition after 48 hrs by SRB assay; format: functional
[44] = system: NCI-H226; experiment: Cytotoxicity against human NCI-H226 cells assessed as growth inhibition after 48 hrs by SRB assay; format: functional; settings: NCI-H226, 48 h
[45] = system: PC-3; experiment: Cytotoxicity against human PC3 cells assessed as growth inhibition after 48 hrs by SRB assay; format: functional; settings: PC-3, 48 h
[46] = system: SNB-75; experiment: Cytotoxicity against human SNB75 cells assessed as growth inhibition after 48 hrs by SRB assay; format: functional; settings: SNB-75, 48 h

SMILES: COc1ccc2c(c1)COCc1cc(OC)c(OC)c(OC)c1-2
- GI50 [1]: 200 nM
- GI50 [2]: > 100000 nM
- GI50 [3]: 170 nM
- GI50 [4]: 130 nM
- GI50 [5]: 340 nM
- GI50 [6]: 310 nM
- GI50 [7]: 70 nM
- GI50 [8]: 50 nM
- GI50 [9]: 100 nM
- GI50 [10]: 440 nM
- GI50 [11]: 50 nM
- IC50 [12]: 110000 nM
- GI50 [13]: 80 nM
- GI50 [14]: 40 nM
- GI50 [15]: 50 nM
- GI50 [16]: 80 nM
- GI50 [17]: 40 nM
- GI50 [18]: 2040 nM
- GI50 [19]: 60 nM
- GI50 [20]: 90 nM
- GI50 [21]: 1120 nM
- GI50 [22]: > 100000 nM
- GI50 [23]: 280 nM
- GI50 [24]: 330 nM
- GI50 [25]: 220 nM
- GI50 [26]: 240 nM
- GI50 [27]: 160 nM
- GI50 [28]: 40 nM
- GI50 [29]: 30 nM
- IC50 [30]: 7400 nM
- GI50 [31]: 100 nM
- GI50 [32]: 460 nM
- GI50 [33]: 40 nM
- GI50 [34]: 850 nM
- GI50 [35]: 980 nM
- GI50 [36]: 80 nM
- GI50 [37]: 590 nM
- GI50 [38]: 130 nM
- GI50 [39]: 110 nM
- GI50 [40]: 80 nM
- GI50 [41]: 15100 nM
- GI50 [42]: 830 nM
- GI50 [43]: 210 nM
- GI50 [44]: 1580 nM
- GI50 [45]: 480 nM
- GI50 [46]: 90 nM
